# Experiments:
# SIM/SMR promoters = assay: SIM/SMR promoter:GUS transcriptional reporter lines; format: in vivo, Arabidopsis thaliana
# Text: SIM/SMR promoter sequences were amplified from genomic DNA by PCR using the primers described in Table 5. The product fragments were created with the Pfu DNA Polymerase Kit (Promega, Catalog #M7745), and were cloned into a pDONR P4-Plr entry vector by BP recombination cloning and subsequently transferred into the pMK7S*NFml4GW,0 destination vector by LR cloning, resulting in a transcriptional fusion between the promoter of the SMR genes and the nlsGFP-GUS fusion gene (Karimi et al., 2007). For the overexpression constructs, the SMR coding regions were amplified using primers described in Table 5, and cloned into the pDONR221 vector by BP recombination cloning and subsequently transferred into the pK2GW7 destination vector (Kamimi et al., 2002) by LR cloning. All constructs were transferred into the Agrobacterium tumefaciens C58C1RifR strain harboring the pMP90 plasmid. The obtained Agrobacterium strains were used to generate stably transformed Arabidopsis lines with the floral dip transformation method (Clough and Bent, 1998). Transgenic plants were obtained on kanamycin-containing medium and later transferred to soil for optimal seed production.
# Complete seedlings or tissue cuttings were stained in multiwell plates (Falcon 3043; Becton Dickinson). GUS assays were performed as described by Beeckman and Engler (1994). Samples mounted in lactic acid were observed and photographed with a stereomicroscope (Olympus BX51 microscope) or with a differential interference contrast (DIC) microscope (Leica).
# To confirm involvement of SIM/SMR genes in the genotoxic stress response, transcriptional reporter lines containing the putative upstream promoter sequences were constructed for all. After selection of representative reporter lines, one-week-old seedlings were transferred to control medium, or medium supplemented with HU (resulting into stalled replication forks) or bleomycin (causing DSBs).
# [1] = test system: 5-day-old wild-type root tips; conditions: 2-mM hydroxyurea; cited from earlier work
smiles,measurement,setting,value
"NC(=O)NO [HU, hydroxyurea]","transcriptional induction of SMR4, SMR5 and SMR7 reporters in the root meristem","SIM/SMR promoters; one-week-old seedlings, 1 mM HU, GUS assay 24 hours after transfer",strong transcriptional induction
same,induction of SMR5 and SMR7 GUS reporters in the proliferating leaf,SIM/SMR promoters; treated for 24 hours,induced
same,"HU 24 h/0 h fold change, AT1G07500 (Siamese-related 5)",[1],7.863
same,"HU 24 h/0 h fold change, AT1G09815 (polymerase delta 4)",[1],2.354
same,"HU 24 h/0 h fold change, AT1G12020 (unknown protein)",[1],1.873
same,"HU 24 h/0 h fold change, AT1G13330 (Hop2 homolog)",[1],2.949
same,"HU 24 h/0 h fold change, AT1G17460 (TRF-like 3)",[1],2.378
same,"HU 24 h/0 h fold change, AT1G30600 (Subtilase family protein)",[1],1.711
same,"HU 24 h/0 h fold change, AT1G31280 (Argonaute family protein)",[1],1.866
same,"HU 24 h/0 h fold change, AT1G49030 (PLAC8 family protein)",[1],1.553
same,"HU 24 h/0 h fold change, AT1G59660 (Nucleoporin autopeptidase)",[1],1.860
same,"HU 24 h/0 h fold change, AT1G76180 (Dehydrin family protein)",[1],1.659
same,"HU 24 h/0 h fold change, AT2G18600 (Ubiquitin-conjugating enzyme family protein)",[1],5.521
same,"HU 24 h/0 h fold change, AT2G21790 (ribonucleotide reductase 1)",[1],2.514
same,"HU 24 h/0 h fold change, AT2G30360 (SOS3-interacting protein 4)",[1],2.274
same,"HU 24 h/0 h fold change, AT2G31320 (poly(ADP-ribose) polymerase 2)",[1],2.445
same,"HU 24 h/0 h fold change, AT2G36910 (ATP binding cassette subfamily B1)",[1],1.569
same,"HU 24 h/0 h fold change, AT2G45460 (SMAD/FHA domain-containing protein)",[1],2.378
same,"HU 24 h/0 h fold change, AT2G46610 (RNA-binding RRM/RBD/RNP motifs family protein)",[1],3.593
same,"HU 24 h/0 h fold change, AT2G47680 (zinc finger CCCH type helicase family protein)",[1],3.422
same,"HU 24 h/0 h fold change, AT3G02400 (SMAD/FHA domain-containing protein)",[1],2.479
same,"HU 24 h/0 h fold change, AT3G07800 (Thymidine kinase)",[1],7.160
same,"HU 24 h/0 h fold change, AT3G12510 (MADS-box family protein)",[1],2.266
same,"HU 24 h/0 h fold change, AT3G15240 (Serine/threonine-protein kinase WNK-related)",[1],1.790
same,"HU 24 h/0 h fold change, AT3G20490 (unknown protein)",[1],2.313
same,"HU 24 h/0 h fold change, AT3G25250 (AGC kinase family protein)",[1],1.853
same,"HU 24 h/0 h fold change, AT3G27060 (Ferritin/ribonucleotide reductase-like family protein)",[1],4.595
same,"HU 24 h/0 h fold change, AT3G27620 (alternative oxidase 1C)",[1],2.056
same,"HU 24 h/0 h fold change, AT3G27950 (GDSL-like Lipase/Acylhydrolase superfamily protein)",[1],1.641
same,"HU 24 h/0 h fold change, AT3G42860 (zinc knuckle CCHC-type family protein)",[1],2.445
same,"HU 24 h/0 h fold change, AT3G45730 (unknown protein)",[1],5.637
same,"HU 24 h/0 h fold change, AT4G02390 (Poly(ADP-ribose) polymerase)",[1],7.701
same,"HU 24 h/0 h fold change, AT4G04750 (Major facilitator superfamily protein)",[1],1.625
same,"HU 24 h/0 h fold change, AT4G11740 (Ubiquitin-like superfamily protein)",[1],1.653
same,"HU 24 h/0 h fold change, AT4G15480 (UDP-Glycosyltransferase superfamily protein)",[1],2.196
same,"HU 24 h/0 h fold change, AT4G19130 (Replication factor-A protein 1-related)",[1],2.305
same,"HU 24 h/0 h fold change, AT4G21070 (Breast cancer susceptibility1)",[1],10.375
same,"HU 24 h/0 h fold change, AT4G22960 (Unknown function DUF544)",[1],5.315
same,"HU 24 h/0 h fold change, AT4G28950 (RHO-related protein from plants 9)",[1],9.680
same,"HU 24 h/0 h fold change, AT4G29170 (Mnd1 family protein)",[1],2.898
same,"HU 24 h/0 h fold change, AT4G35740 (DEAD/DEAH box RNA helicase family protein)",[1],2.594
same,"HU 24 h/0 h fold change, AT5G02220 (unknown protein; SMR4)",[1],4.500
same,"HU 24 h/0 h fold change, AT5G03780 (TRF-like 10)",[1],7.111
same,"HU 24 h/0 h fold change, AT5G06190 (unknown protein)",[1],2.878
same,"HU 24 h/0 h fold change, AT5G11460 (Protein of unknown function DUF581)",[1],5.483
same,"HU 24 h/0 h fold change, AT5G14920 (Gibberellin-regulated family protein)",[1],2.789
same,"HU 24 h/0 h fold change, AT5G14930 (senescence-associated gene 101)",[1],1.542
same,"HU 24 h/0 h fold change, AT5G20850 (RAS associated with diabetes protein 51)",[1],4.643
same,"HU 24 h/0 h fold change, AT5G24280 (Gamma-irradiation and mitomycin c induced 1)",[1],4.823
same,"HU 24 h/0 h fold change, AT5G25810 (Integrase-type DNA-binding superfamily protein)",[1],1.558
same,"HU 24 h/0 h fold change, AT5G40840 (Rad21/Rec8-like family protein)",[1],3.375
same,"HU 24 h/0 h fold change, AT5G48720 (X-ray induced transcript 1)",[1],5.296
same,"HU 24 h/0 h fold change, AT5G49480 (Ca2+-binding protein 1)",[1],1.952
same,"HU 24 h/0 h fold change, AT5G55490 (Gamete expressed protein 1)",[1],1.670
same,"HU 24 h/0 h fold change, AT5G60100 (pseudo-response regulator 3)",[1],1.619
same,"HU 24 h/0 h fold change, AT5G60250 (Zinc finger C3HC4-type RING finger family protein)",[1],8.907
same,"HU 24 h/0 h fold change, AT5G64060 (NAC domain containing protein 103)",[1],5.579
same,"HU 24 h/0 h fold change, AT5G66130 (RADIATION SENSITIVE 17)",[1],2.888
same,"HU 24 h/0 h fold change, AT5G66985 (unknown protein)",[1],3.294
same,"HU 24 h/0 h fold change, AT5G67360 (Subtilase family protein)",[1],1.676
same,"HU 24 h/0 h fold change, AT5G67460 (O-Glycosyl hydrolases family 17 protein)",[1],2.799

# Reference: patent US20160272992A1, “PROTECTION OF PLANTS AGAINST OXIDATIVE STRESS” (priority 2013, published 2016)
